Results taken from PubChem BioAssay AID1259342 (Broad Institute, 2017).
Active and inactive are the calls of the source.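 The calls were made as follows: active = fitted half-maximal inhibitory concentration AC50 at most ten times the top concentration tested; inconclusive = flat fit with 30 to 70% inhibition, or unusable fit; inactive = AC50 above ten times the top concentration.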

The molecules below were run against E3 ubiquitin-protein ligase TRIM62 (Homo sapiens) (UniProt Q9BVG3) (assay: inhibitors of TRIM62-driven CARD9 ubiquitylation, dose response, CARD9-TRIM62 disruptor project, biochemical, ubiquitin ELISA, AlphaLISA TUBE (AID 1259342;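 as to AC50: potency is for inhibitors that reduce CARD9 ubiquitylation signal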)). Conditions: TRIM62-mediated CARD9 ubiquitylation, AlphaLISA TUBE detection.
Sequence of E3 ubiquitin-protein ligase TRIM62 (Homo sapiens) (Q9BVG3 whole entry, looked up): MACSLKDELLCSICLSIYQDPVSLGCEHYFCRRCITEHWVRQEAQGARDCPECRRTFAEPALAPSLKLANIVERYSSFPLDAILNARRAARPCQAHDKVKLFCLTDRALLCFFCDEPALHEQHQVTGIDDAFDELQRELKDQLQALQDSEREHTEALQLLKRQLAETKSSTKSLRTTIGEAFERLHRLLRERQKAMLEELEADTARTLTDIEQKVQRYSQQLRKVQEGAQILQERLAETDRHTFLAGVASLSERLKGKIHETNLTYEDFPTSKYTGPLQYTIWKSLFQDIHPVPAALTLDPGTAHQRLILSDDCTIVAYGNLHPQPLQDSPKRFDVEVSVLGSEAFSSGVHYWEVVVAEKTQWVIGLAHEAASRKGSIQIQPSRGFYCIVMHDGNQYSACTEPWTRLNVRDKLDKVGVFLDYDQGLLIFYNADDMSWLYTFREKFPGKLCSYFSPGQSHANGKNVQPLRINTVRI
With `CCCN1CCc2nc(SCc3nc(-c4ccc(OC)cc4OC)oc3C)[nH]c(=O)c2C1` the AC50 was > 160 µM (inactive). `NC(=O)C1(N2CCCCC2)CCN(c2ncc(NC(=O)c3ccccc3)cc2C(=O)O)CC1` gave an AC50 of 6.61 µM. For `O=C(Cc1cccs1)Nc1nnc(Cc2ccccc2)s1`, the AC50 was 41.2 µM. `CCc1cc2c(=O)n(Cc3ccco3)c(SC)nc2s1` was tested, and the AC50 was > 160 µM (inactive). `Cc1cccc(Nc2nc(C(=O)Nc3cc(F)ccc3F)nc3ccccc23)c1` showed an AC50 of 24.3 µM. In the case of `O=C(NCc1ccco1)c1c2c(nc3ccccc13)CCC2`, the AC50 is reported as 17.3 µM. `Cc1ccc(-c2nc(C)sc2CC(=O)NCc2ccco2)cc1` was tested, and the AC50 was 56.6 µM. Molecule `O=C(Nc1nc(-c2ccco2)c(-c2ccco2)s1)C1CCC1` has an AC50 of 6.56 µM. `O=C1CS/C(=N\N=C\c2ccco2)N1c1ccccc1` showed an AC50 of 22.2 µM. In the case of `O=C(NC1CC1)c1cc(-c2ccco2)nc2ccccc12`, the AC50 is reported as 21.2 µM. For `CC1Cc2ccccc2N1CC(=O)NC(=O)NC(C)(C)C` (stereo unspecified), the AC50 was > 160 µM (inactive). For `O=C(Nc1nc(-c2ccco2)c(-c2ccco2)s1)c1ccc(F)cc1F`, the AC50 was > 160 µM (inactive). `COc1ccc(NC(=O)c2nc(Nc3ccccc3)c3ccccc3n2)cc1` was tested, and the AC50 was 67.8 µM. `Cc1cccc2nc(CSCc3ccco3)cn12` gave an AC50 of 78.2 µM. For `COc1ccc(-c2ccc(CCC(=O)O)o2)cc1`, the AC50 was 18.1 µM. `O=S(=O)(Nc1nccs1)c1ccc(-n2cccc2)cc1` showed an AC50 of 17.4 µM. In the case of `O=C(CN1CCN(c2ccccc2O)CC1)NC(=O)NC1CCCC1`, the AC50 is reported as > 160 µM (inactive). In the case of `O=C(O)c1ccccc1/C=N/NC(=O)c1cc(-c2ccco2)nc2ccccc12`, the AC50 is reported as 3 µM. For `O=C(O)c1cc(-c2ccc(-c3ccc(F)cc3)o2)nc2ccccc12`, the AC50 was 31.4 µM. `COc1ccc(N2CC3=C(N2)c2ccccc2CC3)cc1` was tested, and the AC50 was 54 µM. `COc1ccc(NC(=O)CN(C)C(=O)c2cc(-c3ccco3)nc3ccccc23)cc1` gave an AC50 of 16.6 µM. For `COc1ccc(F)c(CN2C[C@H]3CC[C@@H]2CN(Cc2cscn2)C3)c1`, the AC50 was > 160 µM (inactive). With `Cc1oc(CSCc2cc(C(=O)O)c(C)o2)cc1C(=O)O` the AC50 was > 160 µM (inactive). For `COCCn1c(C)cc(-c2csc(N)n2)c1C`, the AC50 was 68.3 µM. `O=S(=O)(c1ccc2nc(-c3ccco3)c(-c3ccco3)nc2c1)N1CCOCC1` showed an AC50 of 31.1 µM. In the case of `CC1(C)Cc2ccccc2-c2nc(-c3ccccc3)oc(=O)c21`, the AC50 is reported as 6.32 µM. Molecule `NC(=O)C1(N2CCCCC2)CCN(c2ncc(NC(=O)c3cccs3)cc2C(=O)O)CC1` has an AC50 of 35.8 µM. In the case of `Nc1c2c(nc3ccccc13)CCN(Cc1ccccc1)C2`, the AC50 is reported as > 160 µM (inactive). In the case of `Cc1ccc(Cc2cnc(N)s2)o1`, the AC50 is reported as > 160 µM (inactive). `CCN(CCNC(=O)C1CCN(S(=O)(=O)c2c(C)noc2C)CC1)c1ccccc1` was tested, and the AC50 was > 160 µM (inactive). `O=C(Nc1nccs1)c1cc(-c2ccccn2)nc2c(Cl)cccc12` was tested, and the AC50 was 75.4 µM. With `CCOc1cc2c(C#N)c(N3CCNCC3)nc(N)c2c(N)n1` the AC50 was > 160 µM (inactive). In the case of `COc1ccc(S(=O)(=O)N2CCN(C(=O)c3cc4c(s3)CCC4)CC2)cc1`, the AC50 is reported as 10.2 µM. `COc1ccc2nc(-c3ccco3)c(-c3ccco3)nc2c1` showed an AC50 of 24.9 µM. `CC(=O)Nc1ccc(Nc2nc(-c3nnc(-c4cccc(C)c4)o3)nc3ccccc23)cc1` gave an AC50 of 19 µM. For `COc1ccc(S(=O)(=O)N2CCOCC2)cc1NC(=O)c1cccc(-n2cccc2)c1`, the AC50 was 3.62 µM. Work on `CC1CCN(c2nc(-c3ccco3)c3c(c2C#N)CC(C)(C)OC3)CC1` yielded an AC50 of 17.6 µM. With `O=C(COC(=O)c1cc(-c2cccs2)nc2ccccc12)NCc1ccco1` the AC50 was 26.2 µM. `CCOC(=O)c1[nH]c(Cc2[nH]c(C(=O)OCC)c(C)c2C)c(C)c1C` was tested, and the AC50 was > 160 µM (inactive). `O=C(Nc1nncs1)c1cc(-c2ccco2)nc2ccccc12` showed an AC50 of 28.8 µM. `N#CCSc1nc2c(c(=O)n1Cc1ccco1)C1(CCCC1)Cc1ccccc1-2` gave an AC50 of 57 µM.

Same assay, conditions: TRIM62-mediated CARD9 ubiquitylation, AlphaLISA TUBE detection; at 38 µM (top of the series)
With `Cc1ccc(-c2nnc(-c3nc(Nc4nc5ccccc5s4)c4ccccc4n3)o2)cc1` the “activity change, negative = inhibition” value was “inactive”. In the case of `Cc1ccc(Nc2nc(C(=O)Nc3ccc(Br)cc3)nc3ccccc23)cc1`, the “activity change, negative = inhibition” value is reported as “inactive”. With `O=C(COC(=O)c1ccccc1Oc1ccccc1)NCc1ccco1` the “activity change, negative = inhibition” value was “inactive”. `NC(=O)C1(N2CCCCC2)CCN(c2ncc(NC(=O)c3ccc(F)cc3)cc2C(=O)O)CC1` was tested, and the “activity change, negative = inhibition” value was “inactive”. `Cc1ccc(-c2cc(C(=O)NCc3ccco3)c3ccccc3n2)o1` was tested, and the “activity change, negative = inhibition” value was “inactive”. With `O=C(Nc1nc(-c2nc3ccccc3s2)cs1)c1ccco1` the “activity change, negative = inhibition” value was “inactive”. With `CC(=O)c1ccc(NC(=O)c2noc3c2CCC3)cc1` the “activity change, negative = inhibition” value was “inactive”. `O=C(Nc1nc(-c2ccccn2)cs1)c1cccc(-n2cnnn2)c1` was tested, and the “activity change, negative = inhibition” value was “inactive”. With `O=C1NC(c2ccc(Br)cc2)Nc2sc3c(c21)CCC3` (stereo unspecified) the “activity change, negative = inhibition” value was “inactive”.

Same assay, conditions: TRIM62-mediated CARD9 ubiquitylation, AlphaLISA TUBE detection; at 80 µM (top of the series)
`CCc1nccn1CCC(=O)N1C[C@H](CO)C[C@H](CN2CCCC2)C1` was tested, and the “activity change, negative = inhibition” value was “inactive”. For `O=C1C=C(c2ccccc2)Nc2ccccc2N1`, the “activity change, negative = inhibition” value was “inactive”. In the case of `NC(=O)C1(N2CCCCC2)CCN(c2ccc(NC(=O)c3ccccc3F)cc2C(=O)O)CC1`, the “activity change, negative = inhibition” value is reported as “inactive”. `O=C(CCN1CCOCC1)c1ccc2c(c1)OCCO2` was tested, and the “activity change, negative = inhibition” value was “inactive”. `Cc1cc(C(=O)Nc2nc3c(s2)CCc2ccccc2-3)no1` was tested, and the “activity change, negative = inhibition” value was “inactive”. For `CCN1CCN(C(=O)c2cc(-c3ccco3)nc3ccccc23)CC1`, the “activity change, negative = inhibition” value was “inactive”. With `O=C1c2cccnc2C(=O)N1Cc1ccc(S(=O)(=O)NCc2ccco2)cc1` the “activity change, negative = inhibition” value was “inactive”. In the case of `CN(c1ccccc1C(=O)NCc1ccco1)S(C)(=O)=O`, the “activity change, negative = inhibition” value is reported as “inactive”. With `Cn1ncc2c(NNC(=O)c3cc(O)cc(O)c3)ncnc21` the “activity change, negative = inhibition” value was “inactive”. For `O=C(Nc1ccc2oc(-c3cccnc3)nc2c1)c1ccc2c(c1)OCCO2`, the “activity change, negative = inhibition” value was “inactive”. In the case of `CCOC(=O)C1CCN(C(=O)CN(Cc2ccccc2)S(C)(=O)=O)CC1`, the “activity change, negative = inhibition” value is reported as “inactive”. With `O=[N+]([O-])c1ccc2cc[nH]c2c1` the “activity change, negative = inhibition” value was “inactive”. For `O=C(Nc1cccc2ccccc12)NC1CC1`, the “activity change, negative = inhibition” value was “inactive”. With `Cc1occc1C(=O)NCc1cccc(CNC(=O)c2ccoc2C)c1` the “activity change, negative = inhibition” value was “inactive”. In the case of `Fc1ccc(CSc2nnc(-c3cccnc3)n2Cc2ccco2)cc1`, the “activity change, negative = inhibition” value is reported as “inactive”. `CCSCCNC(=O)c1cncc(Br)c1` was tested, and the “activity change, negative = inhibition” value was “inactive”. For `CCCN1CCCn2nc(CNC(=O)[C@@H](N)Cc3ccc(O)cc3)cc2C1`, the “activity change, negative = inhibition” value was “inactive”. With `O=C(CCCN1C(=O)NC2(CCCC2)C1=O)Nc1ccc(F)cc1` the “activity change, negative = inhibition” value was “inactive”. With `c1cn(CCc2noc(C3CCCC3)n2)c(-c2cc3n(n2)CCCNC3)n1` the “activity change, negative = inhibition” value was “inactive”. For `O=C(Nc1ccc2oc(-c3ccncc3)nc2c1)c1ccc2c(c1)OCCO2`, the “activity change, negative = inhibition” value was “inactive”. `CCOc1ccccc1NC(=O)N1CCCC(c2nccn2CCOC)C1` (stereo unspecified) was tested, and the “activity change, negative = inhibition” value was “inactive”. For `N#Cc1c(-c2ccco2)cc(-c2cccnc2)nc1N`, the “activity change, negative = inhibition” value was “inactive”. In the case of `O=C(Cn1cncc1-c1ccc([N+](=O)[O-])cc1)Nc1ccccc1F`, the “activity change, negative = inhibition” value is reported as “inactive”. For `N#Cc1c2ccc(OCC(=O)NCc3ccco3)cc2n2ccccc12`, the “activity change, negative = inhibition” value was “inactive”. For `N#Cc1c(-c2ccco2)cc(-c2ccccn2)nc1N`, the “activity change, negative = inhibition” value was “inactive”. For `N#CNc1nc(O)cc(=O)[nH]1`, the “activity change, negative = inhibition” value was “inactive”. For `O=C1CC(c2ccco2)Cc2nc(N3CCc4ccccc4C3)ncc21` (stereo unspecified), the “activity change, negative = inhibition” value was “inactive”. In the case of `Cc1cc(C)c2c(N)c(C(=O)Nc3cccc4ccccc34)sc2n1`, the “activity change, negative = inhibition” value is reported as “inactive”. In the case of `O=C(O)C(c1ccccc1)C(c1ccccc1)c1ccccc1` (stereo unspecified), the “activity change, negative = inhibition” value is reported as “inactive”. `Cc1cncc(-c2ccc(S(N)(=O)=O)cc2F)c1` was tested, and the “activity change, negative = inhibition” value was “inactive”. In the case of `Cc1cc(C(=O)NCc2ccco2)on1`, the “activity change, negative = inhibition” value is reported as “inactive”. `CCn1ccnc1C1CCN(C(=O)CCn2c(C)nc3ccccc32)CC1` was tested, and the “activity change, negative = inhibition” value was “inactive”. With `O=C1c2ccccc2S(=O)(=O)N1Cc1cccc(S(=O)(=O)N2CCOCC2)c1` the “activity change, negative = inhibition” value was “inactive”. With `O=C(Nc1ccc(OCC(=O)N2CCOCC2)cc1)c1cncc(Br)c1` the “activity change, negative = inhibition” value was “inactive”. `NC(=O)C1(N2CCCCC2)CCN(c2ccc(NC(=O)c3cccc(Cl)c3)cc2C(=O)O)CC1` was tested, and the “activity change, negative = inhibition” value was “inactive”. With `CCCc1oc(C(=O)O)cc1CN` the “activity change, negative = inhibition” value was “inactive”. `Cc1ccc2cc(CN(Cc3ccco3)S(C)(=O)=O)c(=O)[nH]c2c1` was tested, and the “activity change, negative = inhibition” value was “inactive”. `COCC(=O)N1CCCC2(CCN(CCN3CCCC3)C2=O)C1` (stereo unspecified) was tested, and the “activity change, negative = inhibition” value was “inactive”. With `O=C(CCc1nc(-c2ccccc2)no1)NCC1CNCCOC1` (stereo unspecified) the “activity change, negative = inhibition” value was “inactive”. `O=C(N/N=C/C=C/c1ccco1)c1cncc(Br)c1` was tested, and the “activity change, negative = inhibition” value was “inactive”. `O=C(Nc1ccc2c(c1)nc1n2CCN(C2CCCCC2)C1)c1ccco1` was tested, and the “activity change, negative = inhibition” value was “inactive”. In the case of `COCCCNC(=O)C1CCN(c2ccc(N3CCOCC3)nn2)CC1`, the “activity change, negative = inhibition” value is reported as “inactive”. `O=C(Nc1ncccc1O)c1ccc(OCC2CCCO2)cc1` (stereo unspecified) was tested, and the “activity change, negative = inhibition” value was “inactive”. `C[n+]1cccc2cccc(O)c21` was tested, and the “activity change, negative = inhibition” value was “inactive”. With `CCCOc1ccc(CCC(=O)O)cc1` the “activity change, negative = inhibition” value was “inactive”. For `Cc1ccc(Nc2nc(C(=O)Nc3ccc(Cl)cc3)nc3ccccc23)cc1`, the “activity change, negative = inhibition” value was “inactive”. `COCC(=O)n1nc(-c2ccco2)nc1NCc1cccs1` was tested, and the “activity change, negative = inhibition” value was “inactive”. With `COc1ccc(N2Cc3cccc(C(=O)NC(C)CCc4ccco4)c3C2=O)cc1` (stereo unspecified) the “activity change, negative = inhibition” value was “inactive”. In the case of `CCOc1ccc(CNc2nc(-c3nnc(-c4ccc(F)cc4)o3)nc3ccccc23)cc1`, the “activity change, negative = inhibition” value is reported as “inactive”. `O=C(CN1CCOC1=O)N1CCC2(CCC(=O)N(CCCn3ccnc3)C2)CC1` was tested, and the “activity change, negative = inhibition” value was “inactive”. In the case of `C=CCNc1ncnc2c1CCN(C(=O)c1ccc(CSC)o1)CC2`, the “activity change, negative = inhibition” value is reported as “inactive”.
